pEC50: −log10 of the molar value.
Molecular target: human APJ receptor (Homo sapiens (Human), UniProt P35414)
Experiment: Intracellular cAMP accumulation assay (APJ hcAMP, HTRF)
Assay type: cell-based
Conditions: HEK293 cells stably expressing human APJ receptor; inhibition of forskolin-mediated cAMP production; read-out: Human APJ cAMP EC50 Potency range
In short: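 cAMP inhibition was quantified by HTRF against a cAMP standard curve, with EC50 fitted to a variable-slope sigmoidal curve. Compounds acted on 5,000 APJ-stable HEK293 cells for 30 minutes at room temperature alongside 2 μM forskolin and […] IBMX. Detection reagents were incubated 60 min.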

human APJ receptor, sequence (P35414 whole entry): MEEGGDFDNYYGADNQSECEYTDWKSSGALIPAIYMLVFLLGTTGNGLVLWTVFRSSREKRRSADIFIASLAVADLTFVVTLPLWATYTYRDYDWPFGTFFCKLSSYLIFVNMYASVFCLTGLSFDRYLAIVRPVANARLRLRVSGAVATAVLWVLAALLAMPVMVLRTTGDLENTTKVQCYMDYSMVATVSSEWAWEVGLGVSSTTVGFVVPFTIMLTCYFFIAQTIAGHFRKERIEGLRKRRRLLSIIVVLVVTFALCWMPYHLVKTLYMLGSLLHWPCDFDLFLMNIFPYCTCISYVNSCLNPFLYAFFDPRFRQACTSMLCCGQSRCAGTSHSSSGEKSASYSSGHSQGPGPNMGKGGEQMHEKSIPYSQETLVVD

Structure (SMILES)	pEC50
CCOCc1nc(O)c(-c2nnc(Cc3ccc(Cl)cc3)o2)c(O)c1-c1c(O)cccc1O [Example 229, 3-{5-[(4-chlorophenyl)methyl]-1,3,4-oxadiazol-2-yl}-5-(2,6-dihydroxyphenyl)-6-(ethoxymethyl)pyridine-2,4-diol]	7.00 to 8.00

Same assay, conditions: HEK293 cells stably expressing human APJ receptor; inhibition of forskolin-mediated cAMP production; read-out: hAPJ cAMP EC50 (nM) Potency range

Structure (SMILES)	EC50 [nM]
CCCCc1nc(O)c(-c2nnc(CC(=O)NCc3nc4ccccc4s3)o2)c(O)c1-c1c(OC)cccc1OC [Example 254, N-[(1,3-benzothiazol-2-yl)methyl]-2-{5-[6-butyl-5-(2,6-dimethoxyphenyl)-2,4-dihydroxypyridin-3-yl]-1,3,4-oxadiazol-2-yl}acetamide]	0.01 to 10
CCCCc1nc(O)c(-c2nnc(CC(=O)NCc3nnc(C)o3)o2)c(O)c1-c1c(OC)cccc1OC [Example 271, 2-{5-[6-butyl-5-(2,6-dimethoxyphenyl)-2,4-dihydroxypyridin-3-yl]-1,3,4-oxadiazol-2-yl}-N-[(5-methyl-1,3,4-oxadiazol-2-yl)methyl]acetamide]	0.01 to 10
CCCCc1nc(O)c(-c2nnc(CC(=O)NCCc3ccccc3Cl)o2)c(O)c1-c1c(OC)cccc1OC [Example 258, 2-{5-[6-butyl-5-(2,6-dimethoxyphenyl)-2,4-dihydroxy-pyridin-3-yl]-1,3,4-oxadiazol-2-yl}-N-[2-(2-chlorophenyl)ethyl]acetamide]	0.01 to 10

Same assay, conditions: HEK293 cells stably expressing human APJ receptor; inhibition of forskolin-mediated cAMP production; read-out: hAPJ cAMP EC50 Potency range

Structure (SMILES)	pEC50
CCCCc1nc(O)c(-c2nnc(Cc3ccc(Cl)cc3)o2)c(O)c1-c1c(OC)cccc1OC [Example 8, 6-butyl-3-{5-[(4-chlorophenyl)methyl]-1,3,4-oxadiazol-2-yl}-5-(2,6-dimethoxyphenyl) pyridine-2,4-diol]	8.00 to 11.00
CCOCc1nc(O)c(-c2nnc(Cc3n[nH]c4ccccc34)o2)c(O)c1-c1c(OC)cccc1OC [Example 132, 5-(2,6-dimethoxyphenyl)-6-(ethoxymethyl)-3-[5-(1H-indazol-3-ylmethyl)-1,3,4-oxadiazol-2-yl]pyridine-2,4-diol]	8.00 to 11.00
CCCCc1nc(O)c(-c2nnc(CN(C)C(=O)c3cccc(Cl)c3)o2)c(O)c1-c1c(OC)cccc1OC [Example 156, N-({5-[6-butyl-5-(2,6-dimethoxyphenyl)-2,4-dihydroxypyridin-3-yl]-1,3,4-oxadiazol-2-yl}methyl)-3-chloro-N-methylbenzamide]	8.00 to 11.00
CCOCc1nc(O)c(-c2nnc(Cn3ncc4ccccc43)o2)c(O)c1-c1c(OC)cccc1OC [Example 134, 5-(2,6-dimethoxyphenyl)-6-(ethoxymethyl)-3-[5-(1H-indazol-1-ylmethyl)-1,3,4-oxadiazol-2-yl]pyridine-2,4-diol]	8.00 to 11.00
CCCCc1nc(O)c(-c2nnc(CNC(=O)Cc3ccccc3)o2)c(O)c1-c1c(OC)cccc1OC [Example 166, N-({5-[6-butyl-5-(2,6-dimethoxyphenyl)-2,4-dihydroxypyridin-3-yl]-1,3,4-oxadiazol-2-yl}methyl)-2-phenylacetamide]	8.00 to 11.00
CCCCc1nc(O)c(-c2nnc(Cc3ccc(C#N)cc3)o2)c(O)c1-c1c(OC)cccc1OC [Example 37, 4-({5-[6-butyl-5-(2,6-dimethoxyphenyl)-2,4-dihydroxypyridin-3-yl]-1,3,4-oxadiazol-2-yl}methyl) benzonitrile]	8.00 to 11.00
COc1cccc(OC)c1-c1c(C2CC2)nc(O)c(-c2nnc(Cc3csc(C)n3)o2)c1O [Example 94, 6-cyclopropyl-5-(2,6-dimethoxyphenyl) 3-{5-[(2-methyl-1,3-thiazol-4-yl)methyl]-1,3,4-oxadiazol-2-yl}pyridine-2,4-diol]	7.00 to 8.00
CCCCc1nc(O)c(-c2nnc(CC(=O)NCc3ccccn3)o2)c(O)c1-c1c(OC)cccc1OC [Example 178, 2-{5-[6-butyl-5-(2,6-dimethoxyphenyl)-2,4-dihydroxypyridin-3-yl]-1,3,4-oxadiazol-2-yl}-N-(pyridin-2-ylmethyl)acetamide]	7.00 to 8.00
CCOCc1nc(O)c(-c2nnc(Cc3ccc(Cl)nc3)o2)c(O)c1-c1c(OC)cc(F)cc1OC [Example 216, 3-{5-[(6-chloropyridin-3-yl)methyl]-1,3,4-oxadiazol-2-yl}-6-(ethoxymethyl)-5-(4-fluoro-2,6-dimethoxyphenyl) pyridine-2,4-diol]	8.00 to 11.00
CCCCc1nc(O)c(-c2nnc(CNC(C)=O)o2)c(O)c1-c1c(OC)cccc1OC [Example 175, N-({5-[6-butyl-5-(2,6-dimethoxyphenyl)-2,4-dihydroxypyridin-3-yl]-1,3,4-oxadiazol-2-yl}methyl) acetamide]	8.00 to 11.00
CCCCc1nc(O)c(-c2nnc(CCc3ccc(Cl)cc3)o2)c(O)c1-c1c(OC)cccc1OC [Example 68, 6-butyl-3-{5-[2-(4-chlorophenyl)ethyl]-1,3,4-oxadiazol-2-yl}-5-(2,6-dimethoxyphenyl) pyridine-2,4-diol]	8.00 to 11.00
CCOCc1nc(O)c(-c2nnc(Cc3ccc(C)c(F)c3)o2)c(O)c1-c1c(OC)cccc1OC [Example 126, 5-(2,6-dimethoxyphenyl)-6-(ethoxymethyl)-3-{5-[(3-fluoro-4-methylphenyl)methyl]-1,3,4-oxadiazol-2-yl}pyridine-2,4-diol]	8.00 to 11.00
CCCCc1nc(O)c(-c2nnc(COc3ccccc3)o2)c(O)c1-c1c(OC)cccc1OC [Example 17, 6-butyl-5-(2,6-dimethoxyphenyl)-3-[5-(phenoxymethyl)-1,3,4-oxadiazol-2-yl]pyridine-2,4-diol]	7.00 to 8.00
CCCCc1nc(O)c(-c2nnc(CCc3nc(-c4cnccn4)no3)o2)c(O)c1-c1c(OC)cccc1OC [Example 52, 6-butyl-5-(2,6-dimethoxyphenyl)-3-(5-{2-[3-(pyrazin-2-yl)-1,2,4-oxadiazol-5-yl]ethyl}-1,3,4-oxadiazol-2-yl)pyridine-2,4-diol]	8.00 to 11.00
CCCCc1nc(O)c(-c2nnc(Cc3nc4ccccc4o3)o2)c(O)c1-c1c(OC)cccc1OC [Example 25, 3-[5-(1,3-benzoxazol-2-ylmethyl)-1,3,4-oxadiazol-2-yl]-6-butyl-5-(2,6-dimethoxyphenyl) pyridine-2,4-diol]	8.00 to 11.00
CCCCc1nc(O)c(-c2nnc(CC(=O)Nc3ccc(OC)cc3)o2)c(O)c1-c1c(OC)cccc1OC [Example 183, 2-{5-[6-butyl-5-(2,6-dimethoxyphenyl)-2,4-dihydroxypyridin-3-yl]-1,3,4-oxadiazol-2-yl}-N-(4-methoxyphenyl) acetamide]	7.00 to 8.00
CCCCc1nc(O)c(-c2nnc(CCc3ccccc3)o2)c(O)c1-c1c(OC)cccc1OC [Example 4, 6-butyl-5-(2,6-dimethoxyphenyl)-3-[5-(2-phenylethyl)-1,3,4-oxadiazol-2-yl]pyridine-2,4-diol]	7.00 to 8.00
CCCCc1nc(O)c(-c2nnc(CC(=O)N3CC(F)C3)o2)c(O)c1-c1c(OC)cccc1OC [Example 199, 2-{5-[6-butyl-5-(2,6-dimethoxyphenyl)-2,4-dihydroxypyridin-3-yl]-1,3,4-oxadiazol-2-yl}-1-(3-fluoroazetidin-1-yl)ethan-1-one]	8.00 to 11.00
CCCCc1nc(O)c(-c2nnc(Cc3ccc(F)c(F)c3)o2)c(O)c1-c1cccc(C(C)C)c1 [Example 145, 6-butyl-3-{5-[(3,4-difluorophenyl)methyl]-1,3,4-oxadiazol-2-yl}-5-[3-(propan-2-yl)phenyl]pyridine-2,4-diol]	7.00 to 8.00
CCCCc1nc(O)c(-c2nnc(Cc3ccccc3OC)o2)c(O)c1-c1c(OC)cccc1OC [Example 6, 6-butyl-5-(2,6-dimethoxyphenyl)-3-{5-[(2-methoxyphenyl)methyl]-1,3,4-oxadiazol-2-yl}pyridine-2,4-diol]	7.00 to 8.00
CCCCc1nc(O)c(-c2nnc(CC3CCOCC3)o2)c(O)c1-c1c(OC)cccc1OC [Example 69, 6-butyl-5-(2,6-dimethoxyphenyl)-3-[5-(oxan-4-ylmethyl)-1,3,4-oxadiazol-2-yl]pyridine-2,4-diol]	7.00 to 8.00
CCCCc1nc(O)c(-c2nnc(Cc3nnc(-c4ccncc4)o3)o2)c(O)c1-c1c(OC)cccc1OC [Example 206, 6-butyl-5-(2,6-dimethoxyphenyl)-3-(5-{[5-(pyridin-4-yl)-1,3,4-oxadiazol-2-yl]methyl}-1,3,4-oxadiazol-2-yl)pyridine-2,4-diol]	8.00 to 11.00
CCCCc1nc(O)c(-c2nnc(C(C)(C)c3ccccc3)o2)c(O)c1-c1c(OC)cccc1OC [Example 15, 6-butyl-5-(2,6-dimethoxyphenyl)-3-[5-(2-phenylpropan-2-yl)-1,3,4-oxadiazol-2-yl]pyridine-2,4-diol]	8.00 to 11.00
CCCCc1nc(O)c(-c2nnc(Cc3csc(-c4ccccc4)n3)o2)c(O)c1-c1c(OC)cccc1OC [Example 46, 6-butyl-5-(2,6-dimethoxyphenyl)-3-{5-[(2-phenyl-1,3-thiazol-4-yl)methyl]-1,3,4-oxadiazol-2-yl}pyridine-2,4-diol]	8.00 to 11.00
CCCCc1nc(O)c(-c2nnc(CN(C)C(=O)c3ccccc3Cl)o2)c(O)c1-c1c(OC)cccc1OC [Example 161, N-({5-[6-butyl-5-(2,6-dimethoxyphenyl)-2,4-dihydroxypyridin-3-yl]-1,3,4-oxadiazol-2-yl}methyl)-2-chloro-N-methylbenzamide]	8.00 to 11.00
CCOCc1nc(O)c(-c2nnc(Cc3noc4cccnc34)o2)c(O)c1-c1c(OC)cccc1OC [Example 228, 5-(2,6-dimethoxyphenyl)-6-(ethoxymethyl)-3-(5-{[1,2]oxazolo[4,5-b]pyridin-3-ylmethyl}-1,3,4-oxadiazol-2-yl)pyridine-2,4-diol]	8.00 to 11.00

Same assay, conditions: hAPJ cAMP EC50 (nM) Potency range, HEK293 cells stably expressing human APJ receptor; inhibition of forskolin-mediated cAMP production

Structure (SMILES)	EC50 [nM]
CCCCc1nc(O)c(-c2nnc(Cc3ncc(Cl)cc3F)o2)c(O)c1-c1c(OC)cccc1OC [Example 236, 6-butyl-3-{5-[(5-chloro-3-fluoropyridin-2-yl)methyl]-1,3,4-oxadiazol-2-yl}-5-(2,6-dimethoxyphenyl) pyridine-2,4-diol]	10 to 100
